Assay results taken from patent US6514999B1, “Use of an agent for treating the symptoms of Parkinson's disease” (priority 1998, dated 2003).

Tested on: symptoms of Parkinson's disease
Assay: Application to parkinsonian patients for treating the symptoms of Parkinson's disease
Type: in vivo, human (parkinsonian patients)
Conditions: compared within the anilide group of local anesthetics (lidocaine, bupivacaine, butanilicaine, etidocaine, tolycaine)
From the text: The inventive use has the effect, upon application to parkinsonian patients, that the specific symptoms of Parkinson's disease clearly subside, the resulting improved condition of the patient continuing for several hours and even days. In particular, a clear improvement of disease-specific symptoms was obtained with the inventive use […] “local anesthetic of the anilide group” essential to the inventive use belongs in general to the local anesthetics of different structure, the local anesthetics of the anilide group and their derivatives being preferred for treatment as a subgroup of said local anesthetics. Examples of said subgroup are not only mepivacaine but also lidocaine, bupivacaine, butanilicaine, etidocaine and tolycaine. […] One supposition is that the small molecular size of mepivacaine provides an increased probability of crossing the blood-brain barrier. Mepivacaine is in addition lipophilic, i.e. lipid-loving, and tends to attach to fat molecules. It is remarkable in this connection that neurons are usually embedded in fat and an accumulation or concentration of mepivacaine in fat will presumably also have effects on the nervous pathways running through fatty tissue. Levodopa also has strong lipophilia, like mepivacaine, so that this connection might also provide a mechanism of action. […]

Cc1cccc(C)c1NC(=O)C1CCCCN1C (stereo not shown) [mepivacaine]
effectiveness in treating patients with Parkinson's disease: most effective
